US6512166B1, “Combinations of fungal cell wall degrading enzyme and fungal cell membrane affecting compound” (priority 1991, dated 2003)
Read-outs that look alike come from different tables or passages of the source.

Assays:
[1] = Solubility, guidance for forming solutions
Source text: Compositions for use in the systems herein are readily formulated by admixing the fungal cell wall degrading enzymes and the antifungal fungal cell membrane affecting compounds with non-toxic carriers appropriate for the particular use for a composition, e.g., agriculturally acceptable carriers for agricultural uses and pharmaceutically acceptable carriers for medicinal uses. They may be formulated as liquids (solutions or suspensions) or as solids. Since the fungal cell wall degrading enzymes need free water for activity, water must be present at the time of function. […] Water is a preferred vehicle where components are soluble in it. […] Organic solvents can also be used and may be required in some cases if a solution is desired. Guidance for forming solutions follows. […] Suspension can also be employed.

B. cinerea strain 12 = assay: Inhibition of spore germination, ELISA plate assay (Examples III-XVI, XVIII); format: cell-based, Botrytis cinerea; conditions: Table 21; concentration of miconazole for 50% inhibition, alone or with enzyme at its ED10 concentration
Method: (§1) The concentration where fungal cell wall degrading enzyme individually provides a specified percentage fungal inhibition or where antifungal fungal cell membrane affecting compound individually provides a specific percentage fungal inhibition can be determined as follows: Assays are performed under sterile conditions. Equal volumes of spore suspensions, 3× potato dextrose broth, and the test solution or suspension in 5 mM Tris-HCl (pH 6.0) or 5 mM potassium phosphate buffer (pH 6.7) are mixed. The control is the same as the test solution except for the control the antifungal agent is omitted. The assay mixtures (total volume 45 or 30 μl) are incubated on flat-bottomed ELISA plates, each containing 96 wells, with 2,000 to 3,000 spores per well, at 25° C. After 22 to 30 hours, the plates are placed under an inverted microscope. The percentage of conidia germinating is determined as the percentage of the first 100 spores randomly found in a well. In addition, the lengths of 20 germ tubes are measured and averaged. All experiments are performed twice, with three replicates for each treatment. The inhibition values obtained in the two experiments are combined and averaged, and standard deviations are calculated from the 6 data points. The values obtained for the control are taken as 0% inhibition and all other values are divided by the values obtained for the control and multiplied by 100% to obtain percent inhibition. Determination of concentration corresponding to a particular percent inhibition is carried out by subjecting dose-response curves to regression analysis by using a binomial regression of the third order, with R^2 ranging between 0.95 and 0.99.
(§2) Assays were carried out by the procedure described in the summary of the invention section. Dose response curves were obtained by probit analysis of data collected from two separate experiments with each experiment involving three treatment replicates.
Each of 8 antifungal fungal cell membrane affecting compounds were used in combination with each of 8 or 6 fungal cell wall degrading enzymes to provide 50% inhibition (ED50) of B. cinerea strain 12 spore germination. Each fungal cell wall degrading enzyme was used at a concentration giving 10% inhibition of spore germination when used alone in combination with an amount of antifungal fungal cell membrane affecting compound so the combination gave 50% inhibition of spore germination.
(§3) Dose response curves were determined for each antifungal fungal cell membrane affecting compound and for each fungal cell wall degrading enzyme singly. Then each fungal cell wall degrading enzyme at a concentration giving 10% inhibition when used alone was combined with increasing amounts of antifungal fungal cell membrane affecting compound. Then the concentration of antifungal fungal cell membrane affecting compound causing the ED50 for each combination was calculated by probit analysis of data collected from two experiments with three treatment replicates for each experiment. Assays for inhibition of spore germination were carried out as described in the summary of invention section above.
The relative level of synergism (RS below) for each combination was calculated by applying Limpel's formula: Ee=X+Y−(XY/100) as described in Richer, D. L, Pestic. Sci. 19, 309-315, 1987. In Limpel's formula, X and Y are the percentages of inhibition relative to each compound used alone and Ee is the expected effect for an additional (non-synergistic) effect. If the combination of the two agents produces an observed effect (Eo) greater than Ee, synergism exists, and as the difference between Eo and Ee increases, the level of synergism is greater. […]

Botrytis cinerea = assay: Inhibition of spore germination, Eppendorf tube assay (Examples I and II); format: cell-based; conditions: for expected percent inhibition for an additive response (Limpel's formula) at 0.5 µg/mL: read-out: Ee, expected effect from an additive response according to Limpel's formula, percent inhibition; for ED50 of fungicide (dose effective for 50% inhibition): Table 9
[2] = test system: Fusarium oxysporum strain FOP1; assay: Inhibition of spore germination, ELISA plate assay (Examples V-XIV, XVII); format: cell-based; conditions: Table 29; concentration of miconazole for 50% inhibition, alone or with enzyme at its ED10 concentration
Method: as §1, §2, §3
The relative level of synergism (RS below) for each combination was calculated by applying Limpel's formula: Ee=X+Y−(XY/100) as described in Richer, D. L, Pestic. Sci. 19, 309-315, 1987. In Limpel's formula, X and Y are the percentages of inhibition relative to each compound used alone and Ee is the expected effect for an additional (non-synergistic) effect. If the combination of the two agents produces an observed effect (Eo) greater than Ee, synergism exists, and as the difference between Eo and Ee increases, the level of synergism is greater. In this experiment, the X value (percentage inhibition by fungal cell wall degrading enzyme when used alone was chosen to be 10 (10% inhibition of spore germination when used alone) and the observed effect, Eo, was 50 (i.e., 50% inhibition of spore germination). The Y values were obtained from the determined concentrations of antifungal cell membrane affecting compound causing the ED50 for a combination and the dose response curves for the antifungal cell membrane affecting compound used alone—i.e., the Y value was the percent inhibition for the antifungal fungal cell membrane affecting compound when used alone for the concentration of antifungal fungal cell membrane affecting compound that was determined to cause the ED50 for the combination. Ee values were then calculated from Limpel's formula. […]

**Q.** What does the source list for `Clc1ccc(COC(Cn2ccnc2)c2ccc(Cl)cc2Cl)c(Cl)c1` (stereo not drawn) [Miconazole, miconazole]?
**A.** solubility (solvent in which the substance dissolves) [1]: dissolves in 50% (v:v) ethanol; ED50 (B. cinerea strain 12): 3.0 (2-4) ng ml^−1; inhibition at 0.5 µg/mL (Botrytis cinerea; Botrytis cinerea, Table 4, enzyme 0 μg ml^−1 (fungicide alone), flusilazole 5 ng ml^−1, miconazole 0.5 μg ml^−1, read-out: % inhibition): 19%; inhibition at 0.5 µg/mL (Botrytis cinerea; Botrytis cinerea, Table 5, endochitinase from G. virens strain 41 at 25 μg ml^−1, with flusilazole 5 ng ml^−1, miconazole 0.5 μg ml^−1 or none (enzyme alone), read-out: % inhibition): 99%; inhibition at 0.5 µg/mL (Botrytis cinerea; Botrytis cinerea, Table 5, enzyme 0 μg ml^−1 (fungicide alone), flusilazole 5 ng ml^−1, miconazole 0.5 μg ml^−1, read-out: % inhibition): 19%; inhibition at 0.5 µg/mL (Botrytis cinerea; Botrytis cinerea, Table 6, enzyme 0 μg ml^−1 (fungicide alone), flusilazole 5 ng ml^−1, miconazole 0.5 μg ml^−1, read-out: % inhibition): 19%; inhibition at 0.5 µg/mL (Botrytis cinerea; Botrytis cinerea, Table 7, enzyme 0 μg ml^−1 (fungicide alone), flusilazole 5 ng ml^−1, miconazole 0.5 μg ml^−1, read-out: % inhibition): 19%; expected percent inhibition for an additive response (Limpel's formula) at 0.5 µg/mL (Botrytis cinerea; Botrytis cinerea, with Chitob. (P1) 25 μg ml^−1, flusilazole 5 ng ml^−1, miconazole 0.5 μg ml^−1): 27.9%; inhibition at 0.5 µg/mL (Botrytis cinerea; Botrytis cinerea, with Chitob. (P1) 25 μg ml^−1, flusilazole 5 ng ml^−1, miconazole 0.5 μg ml^−1, read-out: Io, percent inhibition observed): 85%; expected percent inhibition for an additive response (Limpel's formula) at 0.5 µg/mL (Botrytis cinerea; Botrytis cinerea, with Endoc. (41) 25 pg ml^−1 (so in the source), flusilazole 5 ng ml^−1, miconazole 0.5 μg ml^−1): 19%; inhibition at 0.5 µg/mL (Botrytis cinerea; Botrytis cinerea, with Endoc. (41) 25 pg ml^−1 (so in the source), flusilazole 5 ng ml^−1, miconazole 0.5 μg ml^−1, read-out: Io, percent inhibition observed): 66%; expected percent inhibition for an additive response (Limpel's formula) at 0.5 µg/mL (Botrytis cinerea; Botrytis cinerea, with Endoc. (P1) 25 μg ml^−1, flusilazole 5 ng ml^−1, miconazole 0.5 μg ml^−1): 42.5%; inhibition at 0.5 µg/mL (Botrytis cinerea; Botrytis cinerea, with Endoc. (P1) 25 μg ml^−1, flusilazole 5 ng ml^−1, miconazole 0.5 μg ml^−1, read-out: Io, percent inhibition observed): 100%; expected percent inhibition for an additive response (Limpel's formula) at 0.5 µg/mL (Botrytis cinerea; Botrytis cinerea, with Glucan. (P1) 25 μg ml^−1, flusilazole 5 ng ml^−1, miconazole 0.5 μg ml^−1): 23%; inhibition at 0.5 µg/mL (Botrytis cinerea; Botrytis cinerea, with Glucan. (P1) 25 μg ml^−1, flusilazole 5 ng ml^−1, miconazole 0.5 μg ml^−1, read-out: Io, percent inhibition observed): 70%; inhibition at 0.5 µg/mL (Botrytis cinerea; Table 4, endochitinase from T. harzianum strain P1 at 75 μg ml^−1, with flusilazole 5 ng ml^−1, miconazole 0.5 μg ml^−1 or none (enzyme alone), read-out: % inhibition): 100%; inhibition at 0.5 µg/mL (Botrytis cinerea; Table 6, chitobiosidase from T. harzianum strain P1 at 75 μg ml^−1, with flusilazole 5 ng ml^−1, miconazole 0.5 μg ml^−1 or none (enzyme alone), read-out: % inhibition): 100%; inhibition at 0.5 µg/mL (Botrytis cinerea; Table 7, glucan 1,3-β-glucosidase from T. harzianum strain P1 at 100 μg ml^−1, with flusilazole 5 ng ml^−1, miconazole 0.5 μg ml^−1 or none (enzyme alone), read-out: % inhibition): 100%; ED50 of fungicide (dose effective for 50% inhibition) (Botrytis cinerea; no endochitinase (0 μg ml^−1)): 3.0 µg/mL; ED50 of fungicide (dose effective for 50% inhibition) (Botrytis cinerea; with endochitinase from T. harzianum strain P1 at 10 μg ml^−1): 0.06 µg/mL; ED50 of fungicide (dose effective for 50% inhibition) (Botrytis cinerea; with endochitinase from T. harzianum strain P1 at 25 μg ml^−1): 0.04 µg/mL; ED50 of fungicide (Botrytis cinerea; Table 10, no chitobiosidase (0 μg ml^−1)): 3.0 µg/mL; ED50 of fungicide (Botrytis cinerea; Table 10, with chitobiosidase from T. harzianum strain P1 at 25 μg ml^−1): 0.06 µg/mL; ED50 of fungicide (Botrytis cinerea; Table 10, with chitobiosidase from T. harzianum strain P1 at 50 μg ml^−1): 0.045 µg/mL; ED50 of fungicide (Botrytis cinerea; Table 10, with chitobiosidase from T. harzianum strain P1 at 75 μg ml^−1): 0.04 µg/mL; ED50 of fungicide (Botrytis cinerea; Table 10, with chitobiosidase from T. harzianum strain P1 at 100 μg ml^−1): 0.03 µg/mL; ED50 of fungicide (Botrytis cinerea; Table 11, no glucosidase (0 μg ml^−1)): 3.0 µg/mL; ED50 of fungicide (Botrytis cinerea; Table 11, with glucan 1,3-β-glucosidase from T. harzianum strain P1 at 25 μg ml^−1): 0.27 µg/mL; ED50 of fungicide (Botrytis cinerea; Table 11, with glucan 1,3-β-glucosidase from T. harzianum strain P1 at 50 μg ml^−1): 0.04 µg/mL; ED50 of fungicide (Botrytis cinerea; Table 11, with glucan 1,3-β-glucosidase from T. harzianum strain P1 at 75 μg ml^−1): 0.0018 µg/mL; ED50 of fungicide (Botrytis cinerea; Table 12, no endochitinase (0 μg ml^−1)): 3.0 µg/mL; ED50 of fungicide (Botrytis cinerea; Table 12, with endochitinase from G. virens strain 41 at 25 μg ml^−1): 0.092 µg/mL; ED50 of fungicide (Botrytis cinerea; Table 12, with endochitinase from G. virens strain 41 at 50 μg ml^−1): 0.06 µg/mL; ED50 of fungicide (Botrytis cinerea; Table 12, with endochitinase from G. virens strain 41 at 75 μg ml^−1): 0.04 µg/mL; ED50 of fungicide (Botrytis cinerea; Table 12, with endochitinase from G. virens strain 41 at 100 μg ml^−1): 0.025 µg/mL; ED50 [2]: 5.0 (4.5-5.5) ng ml^−1
